Experimental data reported in patent publication US20020107302A1, “Monomeric dye inkjet printing ink formulations for invisible marking / identification” (priority 2000, published 2002).

Experiment: Solubility or dispersibility of monomeric dye in vehicle systems
[1] = 50/50 acetone/water, 600 ppm dye
[2] = Methyl ethyl ketone, 600 ppm dye
[3] = Water with 1% ammonium hydroxide, 600 ppm dye
[4] = Water, 0.06% (by weight) or 600 ppm dye

Row | SMILES | Solubility or Dispersibility [1] | Solubility or Dispersibility (Acetone, 600 ppm dye) | Solubility or Dispersibility (Ethanol, 600 ppm dye) | Solubility or Dispersibility (Ethyl acetate, 600 ppm dye) | Solubility or Dispersibility (Methyl acetate, 600 ppm dye) | Solubility or Dispersibility [2] | Solubility or Dispersibility (Propylene glycol, 600 ppm dye) | Solubility or Dispersibility [3] | Solubility or Dispersibility [4]
1 | COC(=O)c1cc([O][Al]2[n]3c4c5ccccc5c3/N=C3N=C(/N=c5/c6ccccc6/c([n]52)=N/C2=NC(=N\4)/c4ccccc42)c2ccccc2\3)cc(C(=O)OC)c1 [Dye II, Aluminum phthalocyanine(3,5-dicarbo-methoxyphenoxide)] | Partially Soluble | Partially Soluble | Soluble | Partially Soluble | Insoluble | Partially Soluble | Soluble | Insoluble | Insoluble
2 | CCCCC(CC)COC(=O)c1ccc(Oc2cccc3c2-c2nc-3nc3[nH]c(nc4nc(nc5[nH]c(n2)c2cccc(Oc6ccc(C(=O)OCC(CC)CCCC)cc6)c52)-c2cccc(Oc5ccc(C(=O)OCC(CC)CCCC)cc5)c2-4)c2cccc(Oc4ccc(C(=O)OCC(CC)CCCC)cc4)c32)cc1 [Dye III, 1(4),8(11),15(18),22(2S)-tetraks((4-(2-ethylhexoxy)carbonyl)phenoxy)phthalocyanine] | Insoluble | Partially Soluble | Insoluble | Soluble | Soluble | Partially Soluble | Insoluble | Insoluble | Insoluble
3 | CN1C(=CC=CC=CC=CC2=[N+](C)c3ccc4ccccc4c3C2(C)C)C(C)(C)c2c1ccc1ccccc21.[O-][Cl+3]([O-])([O-])[O-] [Dye IV, 1,1,3,3,3,3-Hexamethyl-4,4,5,5-dibenzo-2,2-indotricarbocyanine perchlorate] | Soluble | Soluble | Soluble | Soluble | Soluble | Soluble | Soluble | Insoluble | Insoluble
4 | CCN1C(=CCC2CCC(C=CC3Sc4ccc(Cl)cc4N3CC)=C2N(c2ccccc2)c2ccccc2)Sc2ccc(Cl)cc21 (centres unmarked) [Dye V, 5,5-Dichloro-11-(diphenylamino)-3,3-diethyl-10,12-ethylenethiatri-carbocyanine perchlorate] | Soluble | Soluble | Soluble | Insoluble | Partially Soluble | Soluble |  | Insoluble | Insoluble
